Measurements reported in US20220387403A1, “COMPOUNDS, COMPOSITIONS AND METHODS FOR TREATING NASH, NAFLD, AND OBESITY” (CVI Pharmaceuticals Limited, priority 2019, published 2022).
“Also recorded” adds a separate entry of the source.

Columns and labels:
LDLR mRNA = LDLR mRNA expression in HepG2 cells, quantitative real-time RT-PCR; type: cell-based, human; settings: 24 hours; for Activity on LDLR mRNA at 10 uM (fold of control) / Activity on LDLR mRNA at 40 uM (fold of control): mean ± s.d.
Procedure: Activities of some compounds of Formulas I, II, III, and IV on LDLR mRNA expression were determined. HepG2 cells were treated with new compounds individually at a dose less than or equal to 10 μM for 24 hours. Total RNA was harvested for quantitative real-time RT-PCR analysis using the method described in Example 16B. […] In these experiments, berberine chloride was included for comparison. […]
Total RNA was harvested for quantitative real-time RT-PCR analysis using method described in Examples 16B.
(§1) The effects of 23 compounds on the mRNA expressions of LDLR and PCSK9 were examined using quantitative real-time RT-PCR assays. HepG2 cells were treated with various compounds at 10 and 40 uM concentrations for 24 hours. Total RNA was isolated and 2 μg was used to generate cDNA in a reaction containing random primers and M-MLV at 37° C. for 1 h in a volume of 25 μl. Real-time PCR was performed on the cDNA using MCEP REALPLEX 2 SYSTEM (Eppendorf) and Universal MasterMix (Applied Biosystems). Human LDLR, PCSK9, and GAPDH Pre-Developed TaqMan Assay Reagents (Applied Biosystems) were used to assess the levels of mRNA expressions in HepG2. The levels of LDLR and PCSK9 mRNA were normalized to that of GAPDH. Each RNA samples was assayed in duplicate. The fold activity was calculated by dividing mRNA abundance in compound treated cells with that of control.

PCSK9 mRNA = PCSK9 mRNA expression in HepG2 cells, quantitative real-time RT-PCR; type: cell-based, human; settings: 24 hours; for Activity on PCSK9 mRNA reduction at 40 uM (fold of control) / Activity on PCSK9 mRNA reduction at 10 uM (fold of control): mean ± s.d.
Procedure: The time-dependent effects of compounds of Formula I, II, III, and IV on the upregulation of LDLR mRNA and the inhibition of PCSK9 mRNA expression were examined (Horton J D, Cohen J C, Hobbs H H. “Molecular biology of PCSK9: its role in LDL metabolism” TRENDS in Biochemical Sciences 2007; 32:71-77). HepG2 cells were treated with new compounds individually at 20 uM dose for 1 day, 2 day, and 3 days. Total RNA was isolated and 2 μg was used to generate cDNA in a reaction containing random primers and M-MLV at 37° C. for 1 hour in a volume of 25 μl. Real-time PCR was performed on the cDNA using MCEP REALPLEX 2 SYSTEM (Eppendorf) and Universal MasterMix (Applied Biosystems). Human LDLR, PCSK9, and GAPDH Pre-Developed TaqMan Assay Reagents (Applied Biosystems) were used to assess the levels of mRNA expressions in HepG2. The levels of LDLR mRNA or PCSK9 mRNA were normalized to that of GAPDH. Each RNA samples was assayed in triplicate. The abundance of LDLR mRNA or PCSK9 mRNA in untreated cells was defined as 1, and the amounts of LDLR mRNA or PCSK9 from compound-treated cells were plotted relative to that value (FIG. 10). The data shown are mean±s.d.
Total RNA was harvested for quantitative real-time RT-PCR analysis using method described in Examples 16B. The fold activity was derived by dividing the amount of normalized LDLR or PCSK9 mRNA in compound-treated cells over the amount of LDLR or PCSK9 mRNA in untreated control cells.
as §1

NASH hamster model = test: Free-choice diet-induced NASH hamster model; type: in vivo; settings: for NAS score / fibrosis / hepatocyte ballooning: C128 100 mg/kg, elafibranor 15 mg/kg, orally QD for 5 weeks
Procedure: In a free-choice diet-induced NASH hamster model, hamsters were fed a free choice diet (free choice between a chow diet with normal tap water or a high fat/cholesterol diet (Safe Diets) with 10% fructose enriched tap water) for up to 20 weeks (15 weeks diet and 5 weeks treatment). After 15 weeks of diet, hamsters were randomized into 3 homogenous groups (n=10/group) and were treated with vehicle, compound 128 (C128) at 100 mg/kg, or PPAR dual agonist elafibranor 15 mg/kg orally QD for 5 weeks. […] The study results are illustrated by FIGS. 17 to 19.

NAFLD hamster model = test: High fat and high cholesterol diet induced NAFLD hamster model; type: in vivo; settings: 4 weeks
Procedure: In a high fat and high cholesterol diet (HFHCD) induced non-alcoholic fat liver disease (NAFLD) hamster model, hamsters were fed a HFHCD for two weeks then treated for 4 weeks with C128 at 10 mg/kg, 20 mg/kg and 40 mg/kg, along with fenofibrate at 50 mg/kg as a positive control. Serum lipids and liver enzymes were measured using standard techniques. Liver tissue histopathology with Oil-red O staining and H&E staining were also performed.
In a high fat and high cholesterol diet (HFHCD) induced NAFLD hamster model, hamsters were fed a HFHCD for two weeks then treated for 4 weeks with C127 at 80 mg/kg or with fenofibrate 50 mg/kg.

[1] = 100 mg/kg orally QD for 5 weeks

SMILES | Activity on LDLR mRNA at 10 uM (fold of control) (LDLR mRNA) | Activity on LDLR mRNA at 40 uM (fold of control) (LDLR mRNA) | Activity on PCSK9 mRNA reduction at 40 uM (fold of control) (PCSK9 mRNA) | NAS score (NASH hamster model) | fibrosis (NASH hamster model) | hepatocyte ballooning (NASH hamster model) | Activity on PCSK9 mRNA reduction at 10 uM (fold of control) (PCSK9 mRNA) | also measured
COc1cc2c(cc1OC)C1Cc3ccc(OC)c(OS(=O)(=O)c4ccccc4)c3CN1CC2 (stereo not shown) [Compound 91, 2,3,10-trimethoxy-5,6,7,8,13,13a-hexahydroisoquinolino[2,1-b]isoquinolin-9-yl benzenesulfonate] |  |  |  |  |  |  |  | LDLR mRNA expression vs concentration (in words) (LDLR mRNA; FIG. 15A): dose-dependently increases; PCSK9 mRNA expression vs concentration (in words) (PCSK9 mRNA; FIG. 15B): inhibits
COc1ccc2c(c1)CCN1Cc3c(ccc(OC)c3OS(=O)(=O)c3cccc(F)c3)CC21 (stereo not shown) [Compound 128, 3,10-dimethoxy-5,6,7,8,13,13a-hexahydroisoquinolino[2,1-b]isoquinolin-9-yl 3-fluorobenzenesulfonate] | 7.52 ± 0.26 fold of control | 13.36 ± 0.46 fold of control | 0.86 ± 0.029 fold of control | significant reduction | significantly lowered; also recorded: not detected | significantly lowered |  | inflammation score (NASH hamster model; [1]): trend towards lower; steatosis score (NASH hamster model; [1]): trend towards lower; lipid droplets in the hepatocytes and cellular inflammation (H&E) (NAFLD hamster model; 20 mg/kg and 40 mg/kg groups): alleviated to varying degrees; hepatocyte lipid droplet, hepatocyte ballooning and cellular inflammation (H&E) (NAFLD hamster model; 40 mg/kg group): significantly reduced; circulating cholesterol and triglycerides (serum TC, LDL-C, TG) (NAFLD hamster model; C128 10, 20 and 40 mg/kg): significantly reduced; diet induced elevations of liver enzymes (ALT, AST, ALP) (NAFLD hamster model; C128 10, 20 and 40 mg/kg): significantly reduced; fat accumulation in liver tissues (NAFLD hamster model; C128 10, 20 and 40 mg/kg): significantly reduced
COc1ccc2c(c1OS(=O)(=O)c1cccc(F)c1)CN1CCc3cc4c(cc3C1C2)OCCO4 (stereo not shown) [Compound 129, 11-Methoxy-6,7,8,9,14,14a-hexahydro-2H,3H-1,4-dioxano[5,6-g]isoquinolino[3,2-a]isoquinolin-10-yl 3-fluorobenzenesulfonate] | 2.49 ± 0.18 fold of control | 1.99 ± 0.13 fold of control | 1.68 ± 0.41 fold of control |  |  |  | 1.57 ± 0.07 fold of control | 
COc1ccc2c(c1OS(=O)(=O)c1cccc(F)c1)CN1CCc3cc(C)ccc3C1C2 (stereo not shown) [Compound 130, 10-Methoxy-3-methyl-5,6,7,8,13,13a-hexahydroisoquinolino[2,1-b]isoquinolin-9-yl 3-fluroobenzenesulfonate] | 4.29 ± 0.65 fold of control | 9.00 ± 1.49 fold of control |  |  |  |  | 2.11 ± 0.11 fold of control | 
COc1cc2c(cc1OCCO)C1Cc3ccc(OC)c(OS(=O)(=O)c4ccccc4)c3CN1CC2 (stereo not shown) [Compound 143, 2-(2-hydroxyethoxy)-3,10-dimethoxy-5,6,7,8,13,13a-hexahydroisoquinolino[2,1-b]isoquinolin-9-yl benzenesulfonate] | 1.87 ± 0.03 fold of control | 14.97 ± 1.68 fold of control |  |  |  |  | 1.09 ± 0.09 fold of control | 
CSc1ccc(C(=O)/C=C/c2cc(C)c(OC(C)(C)C(=O)O)c(C)c2)cc1 [elafibranor, reference compound] |  |  |  | significant reduction | reduced fibrosis, although to a lesser degree | reduced |  | 
